Data as given in patent publication US12398178B2, “Collections of peptides, peptide agents, and methods of use thereof” (Parabilis Medicines, Inc., priority 2018, dated 2025).
Positions of bridges follow the written chain, without caps; N, C: chain ends. No end group written: not given here. Linker 16 = not defined here

Columns and labels:
[1] = target: T1, full-length β-Catenin (Homo sapiens, UniProt P35222); experiment: Competition fluorescence polarization assay for binding to beta-catenin (displacement of FITC labeled Axin peptide probe); conditions: 15 nM full-length β-Catenin, 20 nM FITC labeled Axin peptide probe, 3-fold serial dilution from 5 μM; read-out: bCat EC50
T1 construct: Probe solution (15 nM full-length β-Catenin, 20 nM FITC labeled Axin peptide in buffer)
T1 sequence (P35222 1-781): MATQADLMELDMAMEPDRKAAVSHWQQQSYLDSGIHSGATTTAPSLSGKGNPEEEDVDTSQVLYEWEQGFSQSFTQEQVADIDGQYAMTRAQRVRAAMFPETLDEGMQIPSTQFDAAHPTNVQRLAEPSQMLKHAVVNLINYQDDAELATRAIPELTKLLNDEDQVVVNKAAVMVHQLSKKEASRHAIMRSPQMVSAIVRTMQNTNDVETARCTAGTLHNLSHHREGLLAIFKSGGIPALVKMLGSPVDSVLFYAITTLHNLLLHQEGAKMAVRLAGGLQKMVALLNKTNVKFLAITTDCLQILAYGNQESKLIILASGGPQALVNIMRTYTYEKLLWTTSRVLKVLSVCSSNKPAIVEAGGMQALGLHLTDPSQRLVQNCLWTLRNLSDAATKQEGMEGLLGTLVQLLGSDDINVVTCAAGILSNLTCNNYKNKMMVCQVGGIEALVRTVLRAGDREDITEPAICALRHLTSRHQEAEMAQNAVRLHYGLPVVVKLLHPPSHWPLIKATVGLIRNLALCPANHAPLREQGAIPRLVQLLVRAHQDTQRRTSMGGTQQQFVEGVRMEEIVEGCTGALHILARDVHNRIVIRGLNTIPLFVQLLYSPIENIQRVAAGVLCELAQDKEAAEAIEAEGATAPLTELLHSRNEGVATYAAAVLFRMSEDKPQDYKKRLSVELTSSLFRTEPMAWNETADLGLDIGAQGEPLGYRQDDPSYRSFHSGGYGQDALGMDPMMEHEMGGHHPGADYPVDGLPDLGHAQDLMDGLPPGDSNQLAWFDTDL
Description: Peptide assessment: In one assay for assessing binding to beta-catenin, peptide solutions were prepared in buffer (50 mM Tris pH 8.0, 250 mM NaCl, 2% glycerol, 0.5 mM EDTA, 0.02% w/v sodium azide) using a 3-fold serial dilution from 5 μM. Probe solution (15 nM full-length β-Catenin, 20 nM FITC labeled Axin peptide in buffer ([FAM-PEG1-RRWPR(S5)ILD(S5)HVRRVWR (SEQ ID NO: 44)] where the two S5 residues are stapled, as reported in: Proc Natl Acad Sci USA. 2012 Oct. 30; 109(44):17942-7)) was prepared and incubated for 5 minutes, then 40 μL per well plated in a black polystyrene 384-well plate (Corning). Equal volume of the titrated peptide was added to the plate and incubated protected from light for 15 minutes prior to read. Reads were performed on a Spectramax M5 (Molecular Devices) in duplicate.

[2] = Measurement of LogD (CHI logD by HPLC); format: physicochemical; conditions: CHI log D, 50 mM ammonium acetate pH 7.4 / acetonitrile gradient, C-18 column, 25° C.
Description: Measurement of LogD: LogD values were measured on a Agilent 1260 HPLC with UV detector (254, 220 nm), using a Gemini NX C-18 50×3 mm column (Phenomenex) with a 6-minute 0-100% mobile phase gradient of A) 50 mM ammonium acetate pH 7.4 and B) Acetonitrile at 25° C. with a flow rate of 1 mL/min and injection volume of 3-5 uL.

[3] = Measurement of LogK (log k IAM by HPLC on IAM.PC.DD2 column); format: physicochemical; conditions: 50 mM ammonium acetate pH 7.4 / acetonitrile, 30° C.
Description: Measurement of LogK: LogK values were measured on a Agilent 1260 HPLC with UV detector (254,280 nm) using a IAM.PC.DD2 100×4.6 mm column (Regis Technologies 1-774011-300) with a 6.5 min gradient of 0-90% B with mobile phase A of 50 mM ammonium acetate pH 7.4, and mobile phase B of Acetonitrile. The temperature was 30° C., the flow rate 1.5 mL/min, and the injection volume 3-5 uL. Calibration mixture IAM was purchased from Bio-mimetic Chromatography Ltd and used to run calibration, calculate CHI IAM value, then calculate logk IAM using equation: log k IAM=0.046*CHI IAM+0.42.

Substance	EC50 [1] [µM]	chromatographic logD [2]	LogD [2]	LogK [3]
GPAKPEAPGEDASPDELYHYYTHLEEYLYDVA-NH2 (C-terminus assumed) [Compound 17]	> 10	0.64		
GPAKPEAPGEDASPDELYYYYDDLRQYLSTVA-NH2 (C-terminus assumed) [Compound 23]	> 10	0.81		
GPAKPEAPGEDASPEELYHYYWDLDDYLDRVA-NH2 (C-terminus assumed) [Compound 28]	> 10	0.62		
GPAKPEAPGEDASPIELWEYYESLETYLDNVA-NH2 (C-terminus assumed) [Compound 29]	> 10	0.73		
GPAKPEAPGEDASPLELNLYYLDLHDYLQQVA-NH2 (C-terminus assumed) [Compound 30]	> 10	0.98		
GPAKPEAPGEDASPNELHYYYWELDSYLENVA-NH2 (C-terminus assumed) [Compound 27]	> 10	0.64		
GPAKPEAPGEDASPNELYYYYDELHYYLHDVA-NH2 (C-terminus assumed) [Compound 25]	> 10	0.59		
GPAKPEAPGEDASPQELHDYYEILDNYLDWVA-NH2 (C-terminus assumed) [Compound 26]	> 10	0.87		
GPAKPEAPGEDASPTELYYYYDHLTDYLDVVP-NH2 (C-terminus assumed) [Compound 24]	> 10	0.66		

The next lines start with results.

EC50 [1] [µM]	chromatographic logD [2]	Substance	LogD [2]	LogK [3]
> 10		37 (ADPATHRCEWAALHCELV; linker 8-15 via Linker 16 (inferred); reading uncertain) [Compound 37]	0.84	1.34
> 10	0.53	GPAKPEAPGEDASPDELIHYYNSLDEYLYEVA-NH2 (C-terminus assumed) [Compound 16]		
> 10	0.52	GPAKPEAPGEDASPDELMHYYTSLEDYLDHVP-NH2 (C-terminus assumed) [Compound 18]		
> 10	0.44	GPAKPEAPGEDASPDELRMYYHELDNYLDQVA-NH2 (C-terminus assumed) [Compound 21]		
> 10	0.82	GPAKPEAPGEDASPDELTYYYDELRDYLYSVA-NH2 (C-terminus assumed) [Compound 19]		
